Measurements published in PubChem BioAssay AID342 (DTP/NCI, 2004).
Where “and” joins values, the source holds several entries; their conditions need not be identical. Identical values can stand only once.

Tested on: Swiss mice, Sarcoma 180 sc, mean tumor weight T/C
Test: NCI In Vivo Anticancer Drug Screen. Data for tumor model Sarcoma 180 (subcutaneous) in Swiss mice
Details: endpoint: mean tumor weight, higher = larger tumour
Outline: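 Readout is the ratio of treated-group measurement to vehicle-control measurement (T/C), based on survival or tumor size in mice carrying transplanted tumors.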

[1] = dose: 62.0 mg/kg/injection, schedule: Q01DX007 (ip), vehicle: carboxymethylcellulose (CMC)
[2] = dose: 250.0 mg/kg/injection, schedule: Q01DX007 (ip), vehicle: carboxymethylcellulose (CMC)
[3] = dose: 500.0 mg/kg/injection, schedule: Q01DX007 (ip), vehicle: carboxymethylcellulose (CMC)

C[C@H]1C[C@@H]2[C@H](C(=O)C[C@@]3(C)[C@H]2CC[C@]3(O)C(=O)CO)[C@@]2(C)C=CC(=O)C=C12
T/C (dose: 221.0 mg/kg/injection, schedule: Q01DX007 (sc), vehicle: steriod suspending solution): 41 % of control | T/C (dose: 330.0 mg/kg/injection, schedule: Q01DX007 (sc), vehicle: steriod suspending solution): 43 % of control and 65 % of control | T/C (dose: 739.0 mg/kg/injection, schedule: Q01DX007 (sc), vehicle: steriod suspending solution): 13 % of control

CCCCN(C)/N=N/c1nc[nH]c1C(N)=O
T/C (dose: 31.0 mg/kg/injection, schedule: Q01DX007 (ip), vehicle: carboxymethylcellulose (CMC)): 44 % of control | T/C [1]: 31 % of control | T/C (dose: 125.0 mg/kg/injection, schedule: Q01DX007 (ip), vehicle: carboxymethylcellulose (CMC)): 14 % of control

O=C(O)CCCc1ccc(N(CCCl)CCCl)cc1
T/C (dose: 1.93 mg/kg/injection, schedule: Q01DX007 (ip), vehicle: carboxymethylcellulose (CMC)): 49 % of control | T/C (dose: 2.62 mg/kg/injection, schedule: Q#A X014 (ip), vehicle: carboxymethylcellulose (CMC)): 99 % of control | T/C (dose: 3.01 mg/kg/injection, schedule: Q01DX007 (ip), vehicle: carboxymethylcellulose (CMC)): 88 % of control | T/C (dose: 3.85 mg/kg/injection, schedule: Q01DX007 (ip), vehicle: carboxymethylcellulose (CMC)): 41 % of control | T/C (dose: 5.25 mg/kg/injection, schedule: Q#A X014 (ip), vehicle: carboxymethylcellulose (CMC)): 69 % of control | T/C (dose: 5.6 mg/kg/injection, schedule: Q01DX007 (ip), vehicle: carboxymethylcellulose (CMC)): 71 % of control | T/C (dose: 6.03 mg/kg/injection, schedule: Q01DX007 (ip), vehicle: carboxymethylcellulose (CMC)): 86 % of control | T/C (dose: 7.0 mg/kg/injection, schedule: Q01DX007 (ip), vehicle: carboxymethylcellulose (CMC)): 52 % of control and 57 % of control | T/C (dose: 7.7 mg/kg/injection, schedule: Q01DX007 (ip), vehicle: carboxymethylcellulose (CMC)): 37 % of control | T/C (dose: 9.33 mg/kg/injection, schedule: Q01DX007 (ip), vehicle: carboxymethylcellulose (CMC)): 63 % of control | T/C (dose: 10.5 mg/kg/injection, schedule: Q01DX007 (ip), vehicle: carboxymethylcellulose (CMC)): 60 % of control | T/C (dose: 10.5 mg/kg/injection, schedule: Q#A X014 (ip), vehicle: carboxymethylcellulose (CMC)): 18 % of control | T/C (dose: 12.05 mg/kg/injection, schedule: Q01DX007 (ip), vehicle: carboxymethylcellulose (CMC)): 58 % of control | T/C (dose: 14.0 mg/kg/injection, schedule: Q01DX007 (ip), vehicle: carboxymethylcellulose (CMC)): 23 % of control and 48 % of control

CCCOC(=O)C1(N)CCCC1
T/C (dose: 148.0 mg/kg/injection, schedule: Q01DX007 (ip), vehicle: saline): 42 % of control | T/C (dose: 225.0 mg/kg/injection, schedule: Q01DX007 (ip), vehicle: saline): 28 % of control

COC12C(COC(N)=O)C3=C(C(=O)C(C)=C(N)C3=O)N1CC1C2N1C (stereo unspecified)
T/C (dose: 0.62 mg/kg/injection, schedule: Q#A X014 (ip), vehicle: carboxymethylcellulose (CMC)): 62 % of control | T/C (dose: 1.25 mg/kg/injection, schedule: Q#A X014 (ip), vehicle: carboxymethylcellulose (CMC)): 123 % of control | T/C (dose: 7.5 mg/kg/injection, schedule: Q#A X014 (ip), vehicle: carboxymethylcellulose (CMC)): 65 % of control | T/C (dose: 15.0 mg/kg/injection, schedule: Q#A X014 (ip), vehicle: carboxymethylcellulose (CMC)): 6 % of control and 16 % of control and 25 % of control | T/C (dose: 20.0 mg/kg/injection, schedule: Q#A X014 (ip), vehicle: carboxymethylcellulose (CMC)): 2 % of control

CCOC(=O)C(N)CC(C)C (stereo unspecified)
T/C [2]: 101 % of control | T/C [3]: 120 % of control

O=NN1CCN(N=O)CC1
T/C (dose: 5.06 mg/kg/injection, schedule: Q#A X014 (ip), vehicle: carboxymethylcellulose (CMC)): 100 % of control | T/C (dose: 20.25 mg/kg/injection, schedule: Q#A X014 (ip), vehicle: carboxymethylcellulose (CMC)): 101 % of control | T/C (dose: 40.5 mg/kg/injection, schedule: Q#A X014 (ip), vehicle: carboxymethylcellulose (CMC)): 88 % of control

O=C(CCCl)N1CCN(C(=O)CCCl)CC1
T/C (dose: 110.0 mg/kg/injection, schedule: Q#A X014 (ip), vehicle: methylcellulose (MC)): 66 % of control | T/C (dose: 167.5 mg/kg/injection, schedule: Q#A X014 (ip), vehicle: methylcellulose (MC)): 54 % of control

Cc1ccc(NCC2(/N=C/c3ccccc3)OC(CO)C(O)C2O)cc1 (stereo unspecified)
T/C (dose: 111.0 mg/kg/injection, schedule: Q#A X014 (ip), vehicle: methylcellulose (MC)): 71 % of control and 72 % of control | T/C (dose: 250.0 mg/kg/injection, schedule: Q#A X014 (ip), vehicle: methylcellulose (MC)): 67 % of control and 90 % of control

CC(C)=CCC1=C(O)c2ccccc2C(=O)C1=O
T/C (dose: 30.0 mg/kg/injection, schedule: Q01DX007 (ip), vehicle: water): 96 % of control | T/C (dose: 50.0 mg/kg/injection, schedule: Q01DX007 (ip), vehicle: water): 97 % of control | T/C (dose: 67.0 mg/kg/injection, schedule: Q01DX007 (ip), vehicle: other): 68 % of control | T/C (dose: 100.0 mg/kg/injection, schedule: Q01DX007 (ip), vehicle: other): 90 % of control | T/C (dose: 100.0 mg/kg/injection, schedule: Q01DX007 (ip), vehicle: water): 91 % of control and 107 % of control | T/C (dose: 100.0 mg/kg/injection, schedule: Q#A X014 (oral), vehicle: other): 70 % of control | T/C (dose: 150.0 mg/kg/injection, schedule: Q01DX007 (ip), vehicle: other): 73 % of control | T/C (dose: 150.0 mg/kg/injection, schedule: Q#A X014 (oral), vehicle: other): 46 % of control | T/C (dose: 200.0 mg/kg/injection, schedule: Q#A X014 (oral), vehicle: other): 42 % of control

CCCCCCCCCCCCCCCCCC1=NC(C)CC(C)(C)O1 (stereo unspecified)
T/C (dose: 187.5 mg/kg/injection, schedule: Q#A X014 (ip), vehicle: saline): 63 % of control

COc1ccccc1NC(=O)CSC(N)=O
T/C (dose: 110.0 mg/kg/injection, schedule: Q01DX007 (ip), vehicle: carboxymethylcellulose (CMC)): 78 % of control | T/C (dose: 165.0 mg/kg/injection, schedule: Q01DX007 (ip), vehicle: carboxymethylcellulose (CMC)): 74 % of control | T/C [2]: 61 % of control | T/C (dose: 375.0 mg/kg/injection, schedule: Q01DX007 (ip), vehicle: carboxymethylcellulose (CMC)): 28 % of control

O=S(c1ccc(Cl)cc1)c1ccc(Cl)cc1
T/C [2]: 105 % of control | T/C [3]: 96 % of control

O=C(O)C(=O)O.O=C([O-])C(=O)O.O=C([O-])C(=O)O.O=C([O-])C(=O)[O-].[K+].[U]
T/C (dose: 7.5 mg/kg/injection, schedule: Q#A X014 (ip), vehicle: saline): 51 % of control and 59 % of control | T/C (dose: 11.25 mg/kg/injection, schedule: Q#A X014 (ip), vehicle: saline): 21 % of control

O=C(Nc1ccc(C2=NCCN2)cc1)c1ccc(C(=O)Nc2ccc(C3=NCCN3)cc2)c(Cl)c1
T/C (dose: 18.0 mg/kg/injection, schedule: Q01DX007 (ip), vehicle: carboxymethylcellulose (CMC)): 88 % of control | T/C (dose: 20.0 mg/kg/injection, schedule: Q01DX007 (ip), vehicle: water): 110 % of control | T/C (dose: 37.0 mg/kg/injection, schedule: Q01DX007 (ip), vehicle: carboxymethylcellulose (CMC)): 96 % of control | T/C (dose: 40.0 mg/kg/injection, schedule: Q01DX007 (ip), vehicle: water): 117 % of control

CC1CC(C)C(O)C(C(O)CC2CC(=O)NC(=O)C2)C1 (stereo unspecified)
T/C (dose: 40.0 mg/kg/injection, schedule: Q01DX007 (ip), vehicle: carboxymethylcellulose (CMC)): 84 % of control | T/C [1]: 55 % of control | T/C (dose: 93.0 mg/kg/injection, schedule: Q01DX007 (ip), vehicle: carboxymethylcellulose (CMC)): 44 % of control

C[C@]12CC[C@@H]3c4ccc(O)cc4CC[C@H]3[C@@H]1C[C@H](O)C2
T/C (dose: 0.25 mg/kg/injection, schedule: Q#A X014 (sc), vehicle: steriod suspending solution): 120 % of control | T/C (dose: 0.5 mg/kg/injection, schedule: Q01DX007 (sc), vehicle: steriod suspending solution): 110 % of control | T/C (dose: 1.25 mg/kg/injection, schedule: Q01DX007 (sc), vehicle: steriod suspending solution): 60 % of control | T/C (dose: 1.25 mg/kg/injection, schedule: Q#A X014 (sc), vehicle: steriod suspending solution): 99 % of control | T/C (dose: 2.5 mg/kg/injection, schedule: Q#A X014 (sc), vehicle: steriod suspending solution): 58 % of control | T/C (dose: 10.0 mg/kg/injection, schedule: Q#A X014 (sc), vehicle: steriod suspending solution): 73 % of control

Nc1ncnc2c1ncn2C1OC(COCc2ccccc2)C(OCc2ccccc2)C1OCc1ccccc1 (stereo unspecified)
T/C (dose: 10.0 mg/kg/injection, schedule: Q01DX007 (ip), vehicle: saline): 88 % of control | T/C (dose: 20.0 mg/kg/injection, schedule: Q01DX007 (ip), vehicle: saline): 86 % of control and 107 % of control | T/C (dose: 40.0 mg/kg/injection, schedule: Q01DX007 (ip), vehicle: saline): 64 % of control and 87 % of control | T/C (dose: 160.0 mg/kg/injection, schedule: Q01DX007 (ip), vehicle: saline): 99 % of control
